Literature values, collected in US20230172943A1 (Mylan Specialty L.P., priority 2020, published 2023).

Details: orally delivered, humans

Tmax (time to reach maximum concentration): 4 to 6 h
time to reach the therapeutic concentration that enables the onset of action: 2 to 3 h
Structure (SMILES): Cc1cnc(NC(=O)C2=C(O)c3ccccc3S(=O)(=O)N2C)s1 [meloxicam, 4-hydroxy-2-methyl-N-(5-methyl-2-thiazolyl)-2H-1,2-benzothiazine-3-carboxamide-1,1-dioxide]
